Measurements published in patent US9119396B2, “Method for promoting plant growth” (SUMITOMO CHEMICAL COMPANY, LIMITED, priority 2011, dated 2015).

Columns and labels:
Format in all cases: in vivo
[1] = system: Rice (cultivar: Nipponbare); assay: Test Example 1: promotion of root growth in hydroponics of rice; settings: 1 ppm, 3 days germination + 3 days cultivation, average of 4 or 5 individuals
Procedure: Evaluation Test for Promotion of Root Growth in Hydroponics of Rice Rice (cultivar: Nipponbare) A 1/10,000 volume of each DMSO solution containing each of the present compounds 1 to 4 at 10,000 ppm was added to a Hoagland solution for hydroponics (Hoagland and Amon, California Agricultural Experiment Station 1950 Circular 347 pp. 34) at ¼ concentration to obtain a solution for hydroponics containing each of the present compounds 1 to 4 at 1 ppm. These solutions were used in the treated-group. In a non-treated group, a solution for hydroponics obtained by adding a Hoagland solution for hydroponics at ¼ concentration to a 1/10,000 volume of DMSO was used. The rice seeds were immersed in an aqueous solution of 1% sodium hypochlorite for 10 minutes, followed by 70% ethanol solution to sterilize their surfaces. After that, the seeds were washed with distilled water. The sterilized seeds were immersed in each solution for hydroponics containing the test compound at 1 ppm, and incubated at a temperature of 28° C. for 3 days under dark conditions to stimulate the germination of the seeds. Then, 30 ml of each solution for hydroponics containing the test compound at 1 ppm was dispensed into a plastic tube (20 mm in diameter×113 mm in height) covered with a cardboard on the lateral surface for blocking a light. A float made of a styrene board and a vinyl mesh was placed on the water surface of each solution for hydroponics, and the rice seeds obtained after the stimulation of germination were placed on the float. The seeds were cultivated for 3 days under the conditions of an illuminance of 4,000 lux at the top of the tube, a temperature of 26° C., a humidity of 50%, and a day length of 16 hours. The root length of the rice seedlings obtained after the cultivation was measured by using WinRHIZO system (manufactured by REGENT INSTRUMENTS). The average value of the root length in the treated group was calculated from the measurement values of 4 or 5 individuals. As a result, the root length in the treated group, wherein the plants were treated with the present compound 1, 2, 3 or 4 (at a concentration of 1 ppm in each case), was much longer than that in the non-treated group.

[2] = system: Benthamiana tobacco (Nicotiana benthamiana); assay: Test Example 9: reduction of low-temperature stress in hydroponics of tobacco; settings: tobacco seedlings, medium with 0.1 ppm compound for 7 days; low-temperature stress 1.5±1.0° C. 7 days, then 3 days at 22° C.
Procedure: Evaluation Test for Reduction of Low-Temperature Stress in Hydroponics of Tobacco (Nicotiana benthamiana) Benthamiana tobacco (Nicotiana benthamiana) DMSO solutions containing each of the present compounds 1, 4 and 5 at a concentration of 100 ppm were prepared. […] These media were used in the treated-group. In a non-treated group, a medium obtained by adding a 1/1,000 volume of DMSO to a Murashige-and-Skoog medium at ½ concentration was used. The seeds of tobacco (Nicotiana benthamiana) were sown on 5 μL of the medium, and incubated at 22° C. overnight. Thereto was added 45 μL of a medium containing each present compound at a concentration of 0.1 ppm, and cultivated for 7 days under the conditions of an illuminance of 4,000 lux, a temperature of 22° C. and a day length of 16 hours, thereby treating the seedlings of tobacco (Nicotiana benthamiana) with the test compound. In the non-treated group, 45 μL of a medium obtained by adding a 1/1,000 volume of DMSO to a Murashige-and-Skoog medium at ½ concentration was added, and treated in the same manner as above. The seedlings of tobacco (Nicotiana benthamiana) treated with the present compounds were cultivated for 7 days under the conditions of an illuminance of 2,000 lux, a temperature of 1.5±1.0° C., and a day length of 16 hours, thereby subjecting to low-temperature stress treatment. The plants of tobacco (Nicotiana benthamiana) subjected to low-temperature stress treatment was cultivated for 3 days under the conditions of an illuminance of 4,000 lux, a temperature of 22° C., and a day length of 16 hours, and then the green leaf area of the plants was visually evaluated. Completely dead plant was scored as 0, the plant without low-temperature stress treatment was scored as 5, the green area was rated on a 6-point scale in ⅕ increments, and the score of not less than 1 was regarded as effective in reducing the stress. As a result of visual evaluation, the green leaf area of plants in the treated group, wherein the plants were treated with the present compound 1, 4 or 5 was much larger than that in the non-treated group.

[3] = system: Rice (cultivar: Nipponbare); assay: Test Example 8: promotion of root growth in hydroponics of rice; settings: 1 ppm, 3 days germination + 3 days cultivation, average of 4 or 5 individuals
Procedure: Evaluation Test for Promotion of Root Growth in Hydroponics of Rice Rice (cultivar: Nipponbare) A 1/10,000 volume of a DMSO solution containing the present compound 5 at 10,000 ppm was added to a Hoagland solution for hydroponics (Hoagland and Amon, California Agricultural Experiment Station 1950 Circular 347 pp. 34) at ¼ concentration to obtain a solution for hydroponics containing the present compound 5 at 1 ppm. The solution was used in the treated-group. In a non-treated group, a solution for hydroponics obtained by adding a Hoagland solution for hydroponics at ¼ concentration to a 1/10,000 volume of DMSO was used. The rice seeds were immersed in an aqueous solution of 1% sodium hypochlorite for 10 minutes, followed by 70% ethanol solution to sterilize their surfaces. After that, the seeds were washed with distilled water. The sterilized seeds were immersed in the solution for hydroponics containing the test compound at the given concentration, and incubated at a temperature of 28° C. for 3 days under dark conditions to stimulate the germination of the seeds. […] The root length of the rice seedlings obtained after the cultivation was measured by using WinRHIZO system (manufactured by REGENT INSTRUMENTS). The average value of the root length in the treated group was calculated from the measurement values of 4 or 5 individuals. […]

Structure (SMILES)	root length of the rice seedlings vs non-treated group [1]	green leaf area of plants (visual evaluation) vs non-treated group [2]	root length of the rice seedlings vs non-treated group [3]
COC(=O)c1cc2ccc(C(F)(F)F)cc2s1 [compound 2]	much longer	–	–
COC(=O)c1cc2c(C(F)(F)F)cccc2s1 [compound 3]	much longer	–	–
COC(=O)c1cc2cccc(C(F)(F)F)c2s1 [compound 4]	much longer	much larger	–
CCOC(=O)c1cc2cc(C(F)(F)F)ccc2s1 [compound 5]	–	much larger	much longer
